From patent publication US10118947B2, “Modulation of structured polypeptide specificity” (BICYCLE THERAPEUTICS LIMITED, priority 2013, dated 2018)
Read-outs that look alike come from different tables or passages of the source. Numbered stars: 1 amine (or outer) side, 2 acyl side, 3 side chain; on linkers, the order of the positions; unused ones are H or OH. Bridge positions count the residues as written; N and C are the ends. Square brackets hold non-standard residues; d marks the D form. Peptide text beside a SMILES is read from it. Phe(4-guanidino) = N=C(N)Nc1ccc(C[C@H](N)C(=O)O)cc1; TBMB = c1c(C[*:1])cc(C[*:3])cc1C[*:2]; NMeR = CN[C@@H](CCCNC(=N)N)C(=O)O; hArg = N=C(N)NCCCC[C@H](N)C(=O)O; Aze = O=C(O)[C@@H]1CCN1

Assays:
[1] = Plasma stability profiling Method #1 (MALDI-TOF, 35% plasma), rat plasma; format: in vitro ADME; conditions: for observability window / rat plasma stability profile: method #1; for Observable in rat plasma, for days: Table 15, comparative stabilities estimated according to method #1
Summary of the method: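 Qualitative test: 200 µM peptide incubated at 37 °C in 35% rat or human citrated plasma supplemented with PBS, sampled at 0, 3, 24 h then daily up to 10 days. Parent mass tracked by MALDI-TOF; value is time until parent peptide no longer detectable.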

[2] = Quantitative plasma stability Method #3 (LC-MS, 95% plasma), rat plasma; format: in vitro ADME; conditions: method #3; for half-life at 5 uM: rat, plasma
Experimental: To obtain plasma stability quantitatively, peptide stock solutions (1 mM in DMSO) were shipped to Biofocus, UK, who performed the analysis. Peptides were diluted to 100 uM with water, and diluted 1:20 in plasma (5 uM final concentration, with the plasma at 95%), sampled as appropriate, precipitated as above, and quantified using a Waters Xevo TQ-MS.

rat plasma Kallikrein [3] = molecular target: T1, rat plasma Kallikrein (Rattus norvegicus, UniProt P14272)
T1 construct: polyhistidine tag (N, cleaved yes); proTEV cleavage site (pro-peptide linker) (N, cleaved yes); made in house; host or cells: HEK-293 (suspension-adapted)

[4] = Table 1; Method #3; cited from earlier work
human plasma Kallikrein = molecular target: T2, human plasma Kallikrein (Homo sapiens, UniProt P03952); experiment: Functional enzyme inhibition assay with fluorogenic substrate Z-PheArg-AMC, human plasma Kallikrein; format: biochemical
T2 construct: purchased Stratech, UK
Summary of the method: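 Human plasma kallikrein at 26.5 pM was preincubated 15 minutes with test peptide in Tris/NaCl/MgCl2/CaCl2/BSA buffer pH7.4 at 25° C, then Z-PheArg-AMC added to 100 μM final in 4% DMSO.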

[5] = Intravenous pharmacokinetics in Sprague Dawley rats; format: in vivo; conditions: rat
Experimental: Peptides were applied as intravenous boli in PBS-buffered solution at 1.02 mg/mL (containing 2.9% DMSO) at 5.2 mg/kg to Sprague Dawley rats, and serial blood samples were taken from each animal via temporary indwelling tall vein cannulae at 5, 10, 20, 30, 60, 120, and 240 minutes post dose, and transferred to EDTA tubes for plasma generation. Data was acquired for peptide “all D Ac-06-34-18” from 3 rats, for “Ac-(06-34-18) Phe2 Aze3 Tyr4 HArg5 Ala(ψCH2NH)6” from two rats, and for “Ac-(06-34-18) Phe2 Aze3 Tyr4 HArg5 D-Asp9” from two rats.
Plasma samples were then treated with 3 volumes of a 1:1 mixture of acetonitrile and methanol, precipitated proteins were removed by centrifugation, and the supernatant was analysed by UPLC-MS/MS.
Quantification for peptide content in the samples was by reference to a calibration line prepared in control rat plasma. Pharmacokinetic parameters were determined by non-compartmental analysis using the software package PK Solutions 2.0 from Summit Research Services.

[6] = Table 1; Method #1; cited from earlier work
rat plasma Kallikrein [7] = molecular target: T1, rat plasma Kallikrein; experiment: Functional enzyme inhibition assay with fluorogenic substrate Z-PheArg-AMC, rat plasma Kallikrein; format: biochemical; conditions: Table 26a, loop2 stability enhanced candidates
Experimental: Functional enzyme assays were conducted in 10 mM Tris HCl, 150 mM NaCl, 10 mM MgCl2, 1 mM CaCl2) and 1 mg/mL BSA (all Sigma UK) pH7.4 at 25° C. in solid black 96 well plates. Briefly 26.5 pM human plasma Kallikrein (purchased from Stratech, UK) or 500 pM rat plasma Kallikrein (expressed and purified in house) were incubated in the absence or presence of increasing concentrations of test peptide for 15 minutes before addition of the fluorogenic substrate Z-PheArg-AMC (Enzo Lifesciences UK) to a final assay concentration of 100 μM in 4% DMSO. Release of AMC was measured using a Pherastar FS (BMG Labtech), excitation 360 nm, emission 460 nm. The rate of the linear phase of the reaction, typically 5 to 45 minutes, was calculated in MARS data analysis software (BMG labtech). The rate was then used to calculate the IC50 and Ki in Prism (GraphPad). A four parameter inhibition non-linear regression equation was used to calculate the IC50.
Peptides were dissolved as the TFA-salts in their powder form, and stock solutions were usually prepared in water. All solutions were centrifuged and filtered ([…] syringe filters) prior absorption measurement at 280 nm. Extinction coefficients were calculated based on the Trp/Tyr content of the peptide, and that of TMB (the TMB core, when contained in a peptide, has an ε of ˜300 M^−1cm^−1). For peptides containing non-natural amino acids with suspected chromophoric properties (i.e. NorHar, 4PhenylPro, 3Pal, 4Pal, Tic, 4GuanPhe, 4,4-BPAI, 3,3-DPA, 1NAI, 2NAI, 4BenzylPro, Ind) concentrations were determined by weighing the powder and dissolving the peptide in a defined quantity of water.

[8] = Plasma stability / fragment profiling Method #2 (MALDI-TOF, 95% plasma), human plasma; format: in vitro ADME
Summary of the method: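 Peptide at 50 uM final in 95% human plasma without PBS; timed samples frozen at −80 °C, then extracted with 1:1 acetonitrile:methanol. Supernatant mixed with 30 mM ammonium bicarbonate and analysed by MALDI-TOF; qualitative fragment profiling of relative stability over time.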

[9] = read-out: half-life in rat plasma (t1/2) (converted)
[10] = Table 1; read-out: Ki (nM) (rat kallikrein); cited from earlier work

T1 sequence (P14272 391-638 limits assumed): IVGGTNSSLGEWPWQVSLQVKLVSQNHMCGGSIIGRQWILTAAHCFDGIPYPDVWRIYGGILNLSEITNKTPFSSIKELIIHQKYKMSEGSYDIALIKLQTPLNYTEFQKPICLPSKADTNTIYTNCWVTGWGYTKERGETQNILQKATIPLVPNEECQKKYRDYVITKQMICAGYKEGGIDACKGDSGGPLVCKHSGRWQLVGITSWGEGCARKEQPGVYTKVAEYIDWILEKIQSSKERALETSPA
T2 sequence (P03952 20-638): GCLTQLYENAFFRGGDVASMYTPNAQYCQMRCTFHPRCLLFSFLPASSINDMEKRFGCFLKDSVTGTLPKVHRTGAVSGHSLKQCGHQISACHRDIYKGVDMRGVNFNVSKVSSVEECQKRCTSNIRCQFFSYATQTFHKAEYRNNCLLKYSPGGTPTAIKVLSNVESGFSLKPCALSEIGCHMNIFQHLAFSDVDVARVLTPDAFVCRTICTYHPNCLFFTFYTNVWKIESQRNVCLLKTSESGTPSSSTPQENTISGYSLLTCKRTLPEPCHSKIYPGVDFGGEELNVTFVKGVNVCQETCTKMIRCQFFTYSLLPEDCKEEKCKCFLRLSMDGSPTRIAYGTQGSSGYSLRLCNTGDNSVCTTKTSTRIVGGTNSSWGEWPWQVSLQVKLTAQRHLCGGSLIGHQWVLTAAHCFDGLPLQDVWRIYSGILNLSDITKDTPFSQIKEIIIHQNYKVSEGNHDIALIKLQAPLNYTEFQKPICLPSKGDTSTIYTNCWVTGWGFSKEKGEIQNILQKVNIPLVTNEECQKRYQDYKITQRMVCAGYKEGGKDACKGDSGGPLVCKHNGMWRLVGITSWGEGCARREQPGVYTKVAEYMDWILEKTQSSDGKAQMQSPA

For `CC(=O)N[C@H]1CSCc2cc3cc(c2)CSC[C@H](NC(=O)[C@H](CCCNC(=N)N)NC(=O)[C@H](C)NC(=O)[C@@H]2CCCN2C(=O)[C@H](Cc2c[nH]c4ccccc24)NC(=O)[C@H](CO)NC1=O)C(=O)N[C@@H](CC(C)C)C(=O)N[C@@H](Cc1c[nH]cn1)C(=O)N[C@@H](CCC(N)=O)C(=O)N[C@@H](CC(=O)O)C(=O)N[C@@H](CC(C)C)C(=O)N[C@H](C(N)=O)CSC3` [Ac-(06-34-18) wildtype], the “observability window / rat plasma stability profile” value [1] was “about 2 days”, the “t1/2 (hrs) in rat plasma” value ([2]; Table 15) was 2.3 h and the half-life at 5 uM [2, 9] was 2.3 h. The Ki (rat plasma Kallikrein [3]; read-out: Ki (nM) (rat kallikrein); Table 1; cited from earlier work) was 1.8 nM and the “t1/2 (hrs) in rat plasma” value [4] was 2.3 h.
With `CC(=O)N[C@@H]1CSCc2cc3cc(c2)CSC[C@@H](NC(=O)[C@@H](CCCNC(=N)N)NC(=O)[C@@H](C)NC(=O)[C@H]2CCCN2C(=O)[C@@H](Cc2c[nH]c4ccccc24)NC(=O)[C@@H](CO)NC1=O)C(=O)N[C@H](CC(C)C)C(=O)N[C@H](Cc1c[nH]cn1)C(=O)N[C@H](CCC(N)=O)C(=O)N[C@H](CC(=O)O)C(=O)N[C@H](CC(C)C)C(=O)N[C@@H](C(N)=O)CSC3` [All D 06-34-18, Ac-cswparclhqdlc-NH2(TMB), reference compound] the “potency / binding to kallikrein (in words)” value (human plasma Kallikrein) was “lacks any potency”, the half-life ([5]; Sprague Dawley, in vivo, intravenous bolus 5.2 mg/kg, read-out: elimination half-life) was 0.9 h and the “Clearance based on AUC0-∞” value ([5]; intravenous) was 4.5 mL/min/kg. For the same compound, the “Volume of distribution based on AUC0-∞” value ([5]; intravenous) was 0.3 L/kg.
For `CC(=O)N[C@H]1CSCc2cc3cc(c2)CSC[C@H](NC(=O)[C@H](CCCCNC(=N)N)NC(=O)[C@H](C)NC(=O)[C@@H]2CCN2C(=O)[C@H](Cc2c[nH]c4ccccc24)NC(=O)[C@H](CO)NC1=O)C(=O)N[C@@H](CC(C)C)C(=O)N[C@@H](Cc1c[nH]cn1)C(=O)N[C@@H](CCC(N)=O)C(=O)N[C@@H](CC(=O)O)C(=O)N[C@@H](CC(C)C)C(=O)N[C@H](C(N)=O)CSC3` [Ac-(06-34-18) Aze3 HomoArg5] (Ac-CSW[Aze]A[hArg]CLHQDLC-NH2; linker 1-7-13 via TBMB), the “Observable in rat plasma, for days” value [1] is listed as over 10 days, the Ki (rat plasma Kallikrein [3]; [10]) is listed as 14.8 nM and the “Observable in rat plasma, for days” value [6] is listed as over 10 days.
In the case of `CC(=O)N[C@H]1CSCc2cc3cc(c2)CSC[C@H](NC(=O)[C@H](CCCCNC(=N)N)NC(=O)[C@H](C)NC(=O)[C@@H]2CCCN2C(=O)[C@H](Cc2c[nH]c4ccccc24)NC(=O)[C@H](CO)NC1=O)C(=O)N[C@@H](CC(C)C)C(=O)N[C@@H](Cc1c[nH]cn1)C(=O)N[C@@H](CCC(N)=O)C(=O)N[C@@H](CC(=O)O)C(=O)N[C@@H](CC(C)C)C(=O)N[C@H](C(N)=O)CSC3` [Ac-(06-34-18) HomoArg5], the half-life at 5 uM ([2]; Table 15, read-out: t1/2 (hrs) in rat plasma (converted)) is given as 10.7 h, the Ki (rat plasma Kallikrein [3]; [10]) is given as 101 nM and the “t1/2 (hrs) in rat plasma” value [4] is given as 10.7 h.
In the case of `CC(=O)N[C@H]1CSCc2cc3cc(c2)CSC[C@H](NC(=O)[C@H](Cc2ccc(NC(=N)N)cc2)NC(=O)[C@H](C)NC(=O)[C@@H]2CCN2C(=O)[C@H](Cc2c[nH]c4ccccc24)NC(=O)[C@H](CO)NC1=O)C(=O)N[C@@H](CC(C)C)C(=O)N[C@@H](Cc1c[nH]cn1)C(=O)N[C@@H](CCC(N)=O)C(=O)N[C@@H](CC(=O)O)C(=O)N[C@@H](CC(C)C)C(=O)N[C@H](C(N)=O)CSC3` [Ac-(06-34-18) Aze3 4GuanPhe5] (Ac-CSW[Aze]A[Phe(4-guanidino)]CLHQDLC-NH2; linker 1-7-13 via TBMB), the “Observable in rat plasma, for days” value [1] is listed as over 10 days and the “Observable in rat plasma, for days” value [6] is listed as over 10 days.
In the case of `CC(=O)N[C@H]1CSCc2cc3cc(c2)CSC[C@H](NC(=O)[C@H](CCCNC(=N)N)N(C)C(=O)[C@H](C)NC(=O)[C@@H]2CCCN2C(=O)[C@H](Cc2c[nH]c4ccccc24)NC(=O)[C@H](CO)NC1=O)C(=O)N[C@@H](CC(C)C)C(=O)N[C@@H](Cc1c[nH]cn1)C(=O)N[C@@H](CCC(N)=O)C(=O)N[C@@H](CC(=O)O)C(=O)N[C@@H](CC(C)C)C(=O)N[C@H](C(N)=O)CSC3` [Ac-(06-34-18) NMeArg5], the “reduction in potency/affinity compared to wildtype” value (human plasma Kallikrein) is reported as 20 fold, the “observability window / rat plasma stability profile” value [1] is reported as “exceeds the assay time” and the “t1/2 (hrs) in rat plasma” value ([2]; Table 15) is reported as over 20 h. The half-life at 5 uM [2, 9] was over 20 h, the Ki (rat plasma Kallikrein [3]; [10]) was 120 nM and the “t1/2 (hrs) in rat plasma” value [4] was over 20 h.
In the case of `CC(=O)N[C@H]1CSCc2cc3cc(c2)CSC[C@H](NC(=O)[C@H](CCCNC(=N)N)NC(=O)[C@H](Cc2ccc(O)cc2)NC(=O)[C@@H]2CCCN2C(=O)[C@H](Cc2ccccc2)NC(=O)[C@H](CO)NC1=O)C(=O)N[C@@H](CC(C)C)C(=O)N[C@@H](Cc1c[nH]cn1)C(=O)N[C@@H](CCC(N)=O)C(=O)N[C@H](CC(=O)O)C(=O)N[C@@H](CC(C)C)C(=O)N[C@H](C(N)=O)CSC3` [Ac-(06-34-18) Phe2 Tyr4 D-Asp9] (Ac-CSFPYRCLHQ[dD]LC-NH2; linker 1-7-13 via TBMB), the “reduction in potency/affinity compared to wildtype” value (human plasma Kallikrein) is reported as 9 fold, the Ki (human plasma Kallikrein; Table 3b, D-amino acid scan in Loop2, read-out: Ki) is reported as 3.89 nM and the “F (Kivar/KiWT)” value (human plasma Kallikrein; Table 3b, ratio of Ki to wild type) is reported as 9. For the same compound, the Ki (human plasma Kallikrein; read-out: Ki / affinity to human Kallikrein) was 4 nM, the Ki (rat plasma Kallikrein [7]) was 32 nM and the “Fragments (human plasma)” value ([8]; Table 3b, peptide fragments observed after incubation in human plasma) was “-R, -FPYR”.
With `CC(=O)N[C@H]1CSCc2cc3cc(c2)CSC[C@H](NC(=O)[C@H](CCCNC(=N)N)NC(=O)[C@H](Cc2ccc(O)cc2)NC(=O)[C@@H]2CCCN2C(=O)[C@H](Cc2ccccc2)NC(=O)[C@H](CO)NC1=O)C(=O)N[C@@H](C)CN[C@@H](Cc1c[nH]cn1)C(=O)N[C@@H](CCC(N)=O)C(=O)N[C@@H](CC(=O)O)C(=O)N[C@@H](CC(C)C)C(=O)N[C@H](C(N)=O)CSC3` [Ac-(06-34-18) Phe2 Tyr4 Ala(ψCH2NH)6] the Kd (human plasma Kallikrein) was 1.5 nM, the “F (Kivar/KiWT)” value (human plasma Kallikrein; Table 25b, fold change of Ki of variant compared to WT) was 4 and the Ki (human plasma Kallikrein; Table 25b, peptide backbone modifications in Loop2, human plasma kallikrein, read-out: Ki) was 1.47 nM. For the same compound, the Ki (rat plasma Kallikrein [7]) was 43.6 nM and the “degradation / fragments in human plasma (in words)” value ([8]; running text and figure legends) was “significantly enhanced stability in loop2”.
In the case of `CC(=O)N[C@H]1CSCc2cc3cc(c2)CSC[C@H](NC(=O)[C@H](CCCNC(=N)N)N(C)C(=O)[C@H](C)NC(=O)[C@@H]2CCN2C(=O)[C@H](Cc2c[nH]c4ccccc24)NC(=O)[C@H](CO)NC1=O)C(=O)N[C@@H](CC(C)C)C(=O)N[C@@H](Cc1c[nH]cn1)C(=O)N[C@@H](CCC(N)=O)C(=O)N[C@@H](CC(=O)O)C(=O)N[C@@H](CC(C)C)C(=O)N[C@H](C(N)=O)CSC3` [Ac-(06-34-18) Aze3 NMeArg5] (Ac-CSW[Aze]A[NMeR]CLHQDLC-NH2; linker 1-7-13 via TBMB), the “Observable in rat plasma, for days” value [1] is listed as over 10 days, the Ki (rat plasma Kallikrein [3]; [10]) is listed as 70.2 nM and the “Observable in rat plasma, for days” value [6] is listed as over 10 days.
